We go through 2 compounds from US20090131356A1, “miR-15, miR-26, miR-31, miR-145, miR-147, miR-188, miR-215, miR-216, miR-331, mmu-miR-292-3P REGULATED GENES AND PATHWAYS AS TARGETS FOR THERAPEUTIC INTERVENTION” (ASURAGEN, INC., priority 2006, published 2009).

What all share (format): cell-based, human
One data set concerns H1299 cells. Briefly: Alamar Blue proliferation assay, H1299. An excerpt:
(§1) The inventors assessed the therapeutic effect of hsa-miR-147 for lung cancer by using 12 individual lung cancer cell lines. To measure cellular proliferation of lung cancer cells, the following parental non-small cell lung cancer (NSCLC) cells were used: cells derived from lung adenocarcinoma (A549, H1299, H522, H838, Calu-3, HCC827, HCC2935), cells derived from lung squamous cell carcinoma (H520, H226), cells derived from lung adenosquamous cell carcinoma (H596), cells derived from lung bronchioalveolar carcinoma (H1650), and cells derived from lung large cell carcinoma (H460). In addition to these parental cell lines, highly metastatic NSCLC cells were used that stably express the firefly luciferase gene: A549-luc, H460-luc, HCC827-luc, H1650-luc, H441-luc. Unlike the parental cell lines, these metastatic cells readily migrate to distant sites of the test animal and form metastases upon subcutaneous, orthotopic, or intravenous injection. Synthetic hsa-miR-147 or negative control miRNA was delivered via lipid-based transfection into A549, H1299, H522, H838, Calu-3, HCC827, HCC2935, H520, H596, H1650, H460, A549-luc, H460-luc, HCC827-luc, H1650-luc, H441-luc cells and via electroporation into H226 cells. Lipid-based reverse transfection was carried out in triplicates according to a published protocol and the following parameters: 5000-12000 cells per 96 well, 0.1-0.2 μl lipofectamine-2000 (Invitrogen, Carlsbad, Calif.) in 20 μl OptiMEM (Invitrogen), […] final concentration of miRNA in 100 μl (Ovcharenko et al., 2005). Electroporation of H226 cells was carried out using the BioRad GenePulserXcell™ instrument with the following settings: 5×10^6 cells with 5 μg miRNA in 200 μl OptiMEM, square wave pulse at 250 V for 5 ms. […]
(§2) The inventors determined sensitivity and specificity of hsa-miR-147 by administering hsa-miR-147 or negative control miRNA at increasing concentrations, ranging from 0 pM to 3 nM. Delivery of miRNA and cellular proliferation of A549 and H1299 cells was assessed as described above. […]
(Resazurin is reduced to fluorescent resorufin, in cell work by metabolically active cells.)

In another data set the test system is H838 cells. Briefly: Alamar Blue proliferation assay, H838.
From the text: as §1, with “ms. Electroporated H226 cells were seeded at 7000 cells per 96-well in a total volume of 100 μl. All cells except for Calu-3 cells were harvested 72 hours post transfection or electroporation for assessment of cellular proliferation. Calu-3 cells were harvested 10 days post transfection.” for “ms.”

The test system of a further data set is HCC827-luc cells. Briefly: Alamar Blue proliferation assay, HCC827-luc.
From the text: as §1, with “ms. Electroporated H226 cells were seeded at 7000 cells per 96-well in a total volume of 100 μl. All cells except for Calu-3 cells were harvested 72 hours post transfection or electroporation for assessment of cellular proliferation. Calu-3 cells were harvested 10 days post transfection.” for “ms.”

The subject of another data set is H441-luc cells. Briefly: Alamar Blue proliferation assay, H441-luc.
From the text: as §1, with “ms. Electroporated H226 cells were seeded at 7000 cells per 96-well in a total volume of 100 μl. All cells except for Calu-3 cells were harvested 72 hours post transfection or electroporation for assessment of cellular proliferation. Calu-3 cells were harvested 10 days post transfection.” for “ms.”

For another data set, the system named is H1650-luc cells. The experiment in a line: Alamar Blue proliferation assay, H1650-luc.
From the text: as §1, with “ms. Electroporated H226 cells were seeded at 7000 cells per 96-well in a total volume of 100 μl. All cells except for Calu-3 cells were harvested 72 hours post transfection or electroporation for assessment of cellular proliferation. Calu-3 cells were harvested 10 days post transfection.” for “ms.”

Another data set relates to HCC827 cells. Briefly: Alamar Blue proliferation assay, HCC827.
From the text: as §1, with “ms. Electroporated H226 cells were seeded at 7000 cells per 96-well in a total volume of 100 μl. All cells except for Calu-3 cells were harvested 72 hours post transfection or electroporation for assessment of cellular proliferation. Calu-3 cells were harvested 10 days post transfection.” for “ms.”

A further data set relates to A549 cells. The experiment in a line: Alamar Blue proliferation assay, A549.
From the text: as §1, §2

For the next data set, the system named is H520 cells. Briefly: Alamar Blue proliferation assay, H520.
From the text: as §1, with “ms. Electroporated H226 cells were seeded at 7000 cells per 96-well in a total volume of 100 μl. All cells except for Calu-3 cells were harvested 72 hours post transfection or electroporation for assessment of cellular proliferation. Calu-3 cells were harvested 10 days post transfection.” for “ms.”

Another data set deals with H226 cells. The experiment in a line: Alamar Blue proliferation assay, H226 (electroporation).
From the text: as §1, with “ms. Electroporated H226 cells were seeded at 7000 cells per 96-well in a total volume of 100 μl. All cells except for Calu-3 cells were harvested 72 hours post transfection or electroporation for assessment of cellular proliferation. Calu-3 cells were harvested 10 days post transfection.” for “ms.”

The next data set has as its system H522 cells. The experiment in a line: Alamar Blue proliferation assay, H522.
From the text: as §1, with “ms. Electroporated H226 cells were seeded at 7000 cells per 96-well in a total volume of 100 μl. All cells except for Calu-3 cells were harvested 72 hours post transfection or electroporation for assessment of cellular proliferation. Calu-3 cells were harvested 10 days post transfection.” for “ms.”

The mark [1] stands for this setting: 30 nM, normalized to negative control miRNA (100% proliferation).
Where [2] appears, read: etoposide 10 μM, normalized to negative control miRNA (100%).
Where [3] appears, read: etoposide 50 μM, normalized to negative control miRNA (100%).

For the compound “hsa-miR-147: Synthetic pre-miR-147 (Ambion AM17100; Dharmacon in vivo); mature sequence GUGUGUGGAAAUGCUUCUGC, MIMAT0000251, SEQ ID NO:114 (synthetic pre-miR (Ambion/Dharmacon), chemistry not given here; listed as Homo sapiens)”, the “% proliferation” value in the data set with H1299 cells (setting [1]) turned out to be 78.22%; with H838 cells (setting [1]), 71.44%; in the data set on HCC827-luc cells (setting [1]) it was 61.15%; in the data set with H441-luc cells (setting [1]), 55.53%; with H1650-luc cells (setting [1]), 59.27%; in the data set on HCC827 cells (setting [1]) it was 76.18%. Besides, the “% proliferation” value in the data set with A549 cells (setting [1]) was 67.78%; in the data set on H520 cells (setting [1]) it was 95.64%; with H226 cells (setting [1]), 72.82%; in the data set with H522 cells (setting [1]) it was 89.21%.

As for `COc1cc([C@@H]2c3cc4c(cc3[C@@H](O[C@@H]3O[C@@H]5CO[C@@H](C)O[C@H]5[C@H](O)[C@H]3O)[C@H]3COC(=O)[C@H]23)OCO4)cc(OC)c1O` [Etoposide, etoposide], the “% proliferation” value is given as 79.65% in the data set with H1299 cells (setting [2]); 54.38% in the data set with H1299 cells (setting [3]); 89.71% with H838 cells (setting [2]); 36.97% with H838 cells (setting [3]); 21.92% in the data set on HCC827-luc cells (setting [2]); 0.75% with HCC827-luc cells (setting [3]). For the same compound, the “% proliferation” value stood at 41.22% in the data set on H441-luc cells (setting [2]); 1.99% in the data set with H441-luc cells (setting [3]); 33.78% in the data set on H1650-luc cells (setting [2]); 5.59% in the data set with H1650-luc cells (setting [3]); 98.95% in the data set with HCC827 cells (setting [2]); 82.53% in the data set with HCC827 cells (setting [3]). Also, the “% proliferation” value in the data set with A549 cells (setting [2]) is recorded as 49.13%; in the data set on A549 cells (setting [3]) it was 42.18%; in the data set on H520 cells (setting [2]) it was 66.80%; in the data set with H520 cells (setting [3]), 48.53%; in the data set on H226 cells (setting [2]), 28.17%; with H226 cells (setting [3]), 9.33%. The “% proliferation” value is 82.13% in the data set with H522 cells (setting [2]) and 61.08% in the data set with H522 cells (setting [3]).
